Consider five compounds from patent US6682545B1, “System and device for preventing restenosis in body vessels” (The Penn State Research Foundation, priority 1999, dated 2004).

“Also recorded” adds a separate entry of the source.

Series [1] concerns primary VSM isolated from rabbit carotid arteries. Briefly: Apoptosis by fluorescence-activated cell sorting after propidium iodide staining. It is filed as cell-based. The following applies: 100 nM. The text has this: Ceramide treatment correlated with growth arrest at G0G1and not apoptosis in these smooth muscle-like pericytes. […] Thus, the therapeutic efficacy of cell-perneable ceramide in restenosis includes its ability to arrest VSM growth without inducing significant apoptosis.

A short description of series [2]: Ceramide transfer from balloon catheter to carotid artery ([3H]C6-ceramide tracer, TLC, in situ autoradiography). Format: in vivo, rabbit. Here is the method: The inability of experimentally effective therapies to succeed in clinical trials is often the consequence of sub-optimal doses of therapeutics being delivered to the site of injury for the appropriate duration. Moreover, the efficacy of therapy may be a consequence of biomechanical force transferring ceramide from the inflated balloon to the site of vascular lesions. Therefore, experiments were conducted to quantify ceramide transfer between the balloon and the carotid artery; the pharmacokinetics of ceramide transfer and delivery from the balloon catheter to the damaged artery was assessed. Using [^3H]C6-ceramide as a tracer, it was calculated that 70±10 nmol of C6-ceramide was applied to the balloon as a gel from a solution of 5 μmol of C6-ceramide. […] This translates to roughly 58 nmol of C6-ceramide being transferred from the balloon catheter during the angioplasty procedure. To test whether inflation of the balloon within the carotid artery was essential for optimal transfer of the ceramide, the surgical procedure was performed using noninflated balloons. The recovered ceramide mass on the inserted but noninflated balloon was 14±3 nmol. Rabbit carotid arteries treated with radiolabeled lipid were homogenized, and lipid products were separated by thin-layer chromatography (TLC) (FIG. 3A). The mass of intact ceramide isolated 15 minutes after angioplasty was 2.7±0.4 nmol for inflated balloon treatments and 0.7±0.2 nmol for noninflated balloon treatments. […] As the transferred ceramide was initially delivered to 0.0365 cm^3 of carotid artery luminal volume, the effective concentration of ceramide at the site of balloon injury is estimated to be 1.5 mmol/L. Thus, an effective and reproducible dose of ceramide can be delivered to the damaged artery as a consequence of the balloon inflation.
In situ autoradiography was utilized to document arterial penetrance for [^3H]C6-ceramide transferred from the balloon catheter after angioplasty (FIGS. 3B through 3D). […] This increase in pixel intensity reflects an increase in intact ceramide, as at this time point 89±4% of the radiolabel comigrates with authentic C6-ceramide standards. Pixel intensity was more intense in inflated (panel C) versus noninflated (panel D) arteries. Expressed as pixel density per square millimeter for 10 randomly selected blocks with background values subtracted, medial staining was increased 4.7±0.2-fold for ceramide-coated inflated versus noninflated balloons. Again, this supports the conclusion that balloon inflation leads to maximal delivery and penetrance.
The degradation of the rapidly intercalated radiolabeled ceramide by TLC was also assessed. For the 15-minute postangioplasty time point, 89±4% of the TLC-separated lipid comigrated with authentic C6-ceramide standards. This corresponded to a recovered mass of 2.7±0.4 mnol of ceramide. At 60 minutes after angioplasty, 1.3±0.6 nmol of ceramide was recovered. Thus, 50% radiolabel can still be recovered as intact ceramide in 1 hour. This decrease in ceramide mass corresponded to an increase in TLC-separated gangliosides and cerebrosides but not sphingosines.

For a further series, the system named is neointimal hyperplasia. Briefly: Angioplasty-induced injury, other cell-permeable ceramide derivatives. The following applies: in vivo. The text has this: Other cell-permeable ceramide derivatives can also limit neointimal hyperplasia.
In series [3] the test system is neointimal hyperplasia in rabbit carotid arteries. The experiment in a line: Restenosis after balloon angioplasty with ceramide-coated embolectomy catheter balloon. Format: in vivo, New Zealand white rabbits. The following applies: rabbit carotid artery, 2 weeks post balloon injury. An excerpt:
Experiments were designed to evaluate the therapeutic potential of ceramide-coated embolectomy catheters upon restenosis after balloon angioplasty. Initial studies assessed the extent of restenosis in rabbit carotid arteries after balloon angioplasty as a function of time. Animals were sacrificed 1, 2, 4 and 6 weeks after balloon injury. Marked neointimal hyperplasia was observed as early as 1 week and peaked at 4 weeks (FIG. 2A). […] FIGS. 2B-E illustrate hematoxylin and eosin stained cryostat sections of rabbit carotid arteries. […] Furthermore, it may be theorized that the effects of ceramide are due to biochemical actions and not lipophilic properties.
Initial experiments optimized the methods to induce restenosis after angioplasty in carotid arteries from New Zealand white rabbits. Twenty-one rabbits were divided into three experimental groups, undergoing either balloon angioplasty with a vehicle-treated catheter, a C6-ceramide-treated catheter or a dihydro-C6-ceramide-treated catheter. Each rabbit underwent identical procedures to denude the common carotid artery of endothelium and establish the cellular conditions to promote restenosis. The right common carotid served as the sham control while the left carotid served as the experimental side. […] FIG. 2A represents the time course of restenosis after angioplasty while FIGS. 2B-2E depict representative H/E stained sections. […] The scale for these photomicrographs is 200 microns. FIG. 2F quantifies the extent of restenotic lesions.

The subject of series [4] is restenotic lesions after balloon angioplasty. Briefly: Restenosis after balloon angioplasty, ceramide delivered in solution by infusion-type catheter. It is filed as in vivo. The text has this:
It is noted that infusion-type catheters have the advantage to deliver ceramide in a BSA vehicle at a discrete dose to the site of arterial injury. It was thus determined whether ceramide delivered by solution using an infusion-type catheter is also effective in reducing restenosis as ceramide delivered using a catheter with a gel coated balloon tip. The balloon at the tip of a 4F arterial bilumen irrigation embolectomy catheter was inflated to a diameter equivalent to that of the earlier experiments. Three infusions of 10 μM C6-ceramide for 1 minute each reduced restenosis after balloon angioplasty by 39%. Dihydro-C6-ceramide at an equivalent dose had no effect upon restenotic lesions. These studies further support the novelty and efficacy of ceramide-coated balloon catheters as intra-arterial site-specific delivery devices.

Series [5] has as its system PCNA positive vascular smooth muscle cells. Briefly: PCNA immunohistochemistry of carotid arteries after angioplasty. Format: in vivo, rabbit. The following applies: neointimal layer, coated balloon-injured carotid artery (balloon-injured 2.8%±0.1%, control 0.2%±0.1%). The text has this:
The effects of ceramide treatment upon VSM cell growth in vivo were also investigated. Imunohistochemical techniques were employed to identify VSM using smooth muscle cell-specific actin antibody (FIGS. 4A-B) and cell growth using proliferating cell nuclear antigen (PCNA) antibody (FIGS. 4C-F). […] PCNA is synthesized in early G1 and S phases of the cell cycle, and thus can be used as a marker for cell proliferation. In FIGS. 4C-F, representative photomicrographs depicting PCNA positive staining are shown for control, balloon-injured, ceramide-treated and dihydroceramide-treated carotid arteries, respectively. […] C6-ceramide (0.6%±0.2%) but not dihydro-C6-ceramide (1.9%±0.3%) diminished the number of PCNA positive cells in the neointimal layer but not in the medial layer of the carotid artery.
Specifically, in FIG. 4, ceramide-treated catheters reduced PCNA expression in vascular smooth muscle cells after angioplasty. Smooth muscle actin expression was analyzed by immunohistochemistry utilizing a monoclonal anti-alpha smooth muscle antibody, and PCNA positive cell numbers were assessed with a primary mouse monoclonal IgG2a antibody for PCNA. […] These immunohistochemical micrographs are representative of four separate experiments. […]

In series [6] the test system is restenosis / thrombus formation. Briefly: Anticoagulation therapy (Lovenox) and thrombus formation with ceramide balloon angioplasty. The following applies: ceramide-treated balloon angioplasty. Format: in vivo. An excerpt:
To prevent thrombus formation, patients routinely receive anti-coagulants prior to percutaneous transluminal coronary angioplasty. Thus, the consequences of anticoagulation therapy on the effectiveness of ceramide therapy were investigated.

Another series has as its system ERK2. Briefly: ERK2 phosphorylation in excised carotid arteries after angioplasty (Western blot). Format: in vivo. The following applies: ceramide-coated balloon angioplasty, rabbit carotid arteries. On the procedure:
(§1) Thus, to elucidate mechanisms by which ceramide prevents restenosis, the phosphorylation states of ERK2 and PKBα were investigated using freshly excised carotid arteries after angioplasty (FIG. 5). Phosphorylation of ERK2 and PKBα were increased at 15 minutes and 24 hours post-balloon injury. The sustained phosphorylation of these kinases most likely reflects continuous remodeling of damaged arteries. […] Thus, acute ceramide therapy may directly modulate kinases or regulate putative ceramide-activated protein phosphatases that down-regulate these signaling pathways.
(§2) Specifically, in FIG. 5, ERK2 and PKBα phosphorylation was diminished after ceramide-coated balloon angioplasty in rabbit carotid arteries. Panel A depicts a representative Western blot for ERK-2 and PKBα probed using phosphorylation-specific antibodies. Lysates from NIH3T3 cells treated with or without PDGF were used as positive and negative controls, respectively. This immunoblot is representative of similar experiments using a total of 8 animals. Panels B-C quantifies the immunoblot data.

In the next series the test system is PKBα. Briefly: PKBα phosphorylation in excised carotid arteries after angioplasty (Western blot). The following applies: ceramide-coated balloon angioplasty, rabbit carotid arteries. It is filed as in vivo. Here is the method:
as §1, §2

Series [7] deals with A7r5 aortic smooth muscle cells. To be noted: cited from earlier work.
Series [8] has as its system rat glomerular mesangial cells. To be noted: cited from earlier work.
[9] abbreviates: 15 minutes after angioplasty, inflated balloon.

Regarding `C=C1[C@@H](O)[C@@H]2O[C@]3(CC[C@H](/C=C/[C@@H](C)[C@@H]4CC(C)=C[C@@]5(O[C@H](C[C@@](C)(O)C(=O)O)CC[C@H]5O)O4)O3)CC[C@H]2O[C@@H]1[C@@H](O)C[C@H](C)[C@H]1O[C@@]2(CCCCO2)CC[C@H]1C` [okadaic acid], the figures for the apoptosis in [1] (24 hours) and in series [1] (40 hours) were 52% and 69%±2%, respectively.
[^3H]C6-ceramide [reference compound]: the “radiolabel comigrating with authentic C6-ceramide standards (TLC)” value in [2] (15 minutes after angioplasty) came out at 89±4%. Besides, in series [2] (setting [9]), the “arterial penetrance (in situ autoradiography)” value is reported as “observed throughout the medial layers of the artery”. Also, in series [2] (autoradiography, 10 randomly selected blocks, background subtracted), the “increase in medial staining (pixel density per square millimeter), inflated versus noninflated balloons” value turned out to be 4.7±0.2 fold.
In the case of `CCCCCCCCCCCCC/C=C/[C@@H](O)[C@H](CO)N(C)C` [dimethylsphingosine], the “effect on angioplasty-induced injury” value in the series on neointimal hyperplasia is “effective in limiting angioplasty-induced injury”.
On to `CCCCCCCCCCCCCCC[C@@H](O)[C@H](CO)NC(=O)CCCCC` [dihydro-C6-ceramide, reference compound], for which the results for the “effect on neointimal hyperplasia / restenosis after balloon injury” value in series [3] and in series [3] (listed as dihydro-CC6-ceramide) were “did not reduce restenosis” and “not”, respectively. Besides, the “effect upon restenotic lesions” value in series [4] (equivalent dose) was “had no effect”. The “percentage of PCNA positive cells” value in series [5] was 1.9%±0.3%.
On to `CCCCCCCCCCCCC/C=C/[C@@H](O)[C@H](CO)NC(=O)CCCCC` [C6-ceramide], for which the “effect on neointimal hyperplasia / restenosis after balloon injury” value in [3] is given as “significantly reduced the neointimal hyperplasia; also recorded: blocked neointimal hyperplasia”. For the same compound, the “inhibition of balloon-induced neointimal formation (reduction of the neointimal/medial ratio)” value in series [3] stood at 92%. The “effective concentration of ceramide at the site of balloon injury” value in series [2] (0.0365 cm^3 carotid artery luminal volume) was roughly 1.5 mmol/L. Further, the “recovered mass of ceramide” value in series [2] (15-minute postangioplasty time point) came to 2.7±0.4 mnol; in series [2] (60 minutes after angioplasty) it was 1.3 ± 0.6 nmol. Further, the “radiolabel comigrating with authentic C6-ceramide standards (TLC)” value in [2] (15 minutes after angioplasty) was 89±4%. Moreover, the “mass of intact ceramide isolated from carotid artery” value in series [2] (setting [9]) was 2.7 ± 0.4 nmol; in series [2] (15 minutes after angioplasty, noninflated balloon), 0.7 ± 0.2 nmol. In addition, the “amount remaining on the balloon” value in series [2] (after insertion and inflation) was found to be 12 ± 2 nmol. Besides, the “amount applied to the balloon as a gel” value in series [2] (from a solution of 5 μmol of C6-ceramide, [3H] tracer) was determined as 70 ± 10 nmol. In addition, the “radiolabel recovered as intact ceramide” value in series [2] (in 1 hour) was determined as 50%. Further, the “amount transferred from the balloon catheter during angioplasty” value in [2] (inflated balloon) is “roughly 58 nmol”. In addition, in [2] (inserted but noninflated balloon), the “recovered ceramide mass on the balloon” value amounted to 14 ± 3 nmol. The “reduction of restenosis after balloon angioplasty” value in series [4] (three infusions of 10 μM for 1 minute each, BSA vehicle) is 39%. Further, the thrombus formation entry in [6] is “Neither ceramide- nor vehicle-treated balloon angioplasty induced thrombus formation”. In series [5], the “percentage of PCNA positive cells” value is 0.6%±0.2%. In addition, the “phosphorylation state of ERK2” value with ERK2 is “reduced below basal activation levels; also recorded: diminished”. For the same compound, the “phosphorylation state of PKBα” value in the series with PKBα was “reduced below basal activation levels; also recorded: diminished”. Besides, the “effect on tyrosine kinase receptor- and G-protein receptor-linked mitogenesis” value in series [7] and in [8] was “inhibit” each time.
